Results taken from patent publication US20260347347A1, “2-AZA-AND 2-OXABICYCLO[2.1.1]HEXANE DERIVATIVES AS FACTOR XIIA ENZYME INHIBITORS” (KALVISTA PHARMACEUTICALS LIMITED, priority 2022, published 2026).

Biological target: T1, Human Factor XIIa (Homo sapiens, UniProt P00748)
T1 construct: purchased Enzyme Research Laboratories
T1 sequence (P00748 373-615 limits assumed): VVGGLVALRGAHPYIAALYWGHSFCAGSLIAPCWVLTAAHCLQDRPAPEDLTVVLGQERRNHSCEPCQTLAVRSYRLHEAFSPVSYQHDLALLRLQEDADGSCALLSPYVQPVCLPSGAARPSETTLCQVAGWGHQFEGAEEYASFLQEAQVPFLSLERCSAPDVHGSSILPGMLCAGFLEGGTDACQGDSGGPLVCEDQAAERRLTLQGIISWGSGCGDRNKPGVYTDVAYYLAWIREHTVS
T1 sequence (P00748 20-372 partner limits assumed): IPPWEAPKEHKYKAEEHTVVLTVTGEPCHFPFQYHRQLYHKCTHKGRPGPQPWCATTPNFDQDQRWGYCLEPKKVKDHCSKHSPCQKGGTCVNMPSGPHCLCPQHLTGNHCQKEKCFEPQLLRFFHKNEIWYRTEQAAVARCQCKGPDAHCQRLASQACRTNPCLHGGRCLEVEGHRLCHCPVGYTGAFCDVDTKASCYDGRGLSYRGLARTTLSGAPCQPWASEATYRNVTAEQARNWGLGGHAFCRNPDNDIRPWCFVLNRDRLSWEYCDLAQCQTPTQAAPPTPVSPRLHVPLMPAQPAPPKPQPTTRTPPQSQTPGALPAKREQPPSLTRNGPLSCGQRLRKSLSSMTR
Assay: Determination of FXIIa inhibition (in vitro IC50 assay, fluorogenic substrate H-DPro-Phe-Arg-AFC)
Format: biochemical
Details: human Factor XIIa, fluorogenic substrate H-DPro-Phe-Arg-AFC at Km concentration, 5 min, 25 °C; for IC50: class symbols, read-out: Human FXIIa IC50
In short: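 Human FXIIa incubated at 25 °C with compound and H-DPro-Phe-Arg-AFC at its Km concentration. Linear fluorescence increase monitored over 5 min, expressed as % of uninhibited activity; IC50 is concentration giving 50% inhibition.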

SMILES	IC50 [nM]	Human FXIIa inhibition (compounds that did not achieve 50% inhibition) (class symbols H1/H2 for % inhibition at top concentration)
Cc1cc(OCC23CN(C(=O)N(C)C[C@@H]4CCOC4)C(CNc4cccc5c(N)nccc45)(C2)C3)cc(=O)n1C [Example 47, (S)-1-(((1-aminoisoquinolin-5-yl)amino)methyl)-4-(((1,6-dimethyl-2-oxo-1,2-dihydropyridin-4-yl)oxy)methyl)-N-methyl-N-((tetrahydrofuran-3-yl)methyl)-2-azabicyclo[2.1.1]hexane-2-carboxamide]	10 to 100	–
CC(=O)NC(C)C(=O)N1CC2(COc3cc(C)n(C)c(=O)c3)CC1(CNc1cccc3c(N)nccc13)C2 (stereo not shown) [Example 29, N-(1-(1-(((1-Aminoisoquinolin-5-yl)amino)methyl)-4-(((1,6-dimethyl-2-oxo-1,2-dihydropyridin-4-yl)oxy)methyl)-2-azabicyclo[2.1.1]hexan-2-yl)-1-oxopropan-2-yl)acetamide]	10 to 100	–
Cc1cc(OCC23CN(C(=O)NC4(c5ccccc5)CC4)C(CNc4cccnc4F)(C2)C3)cc(=O)n1C [Example 67, 4-(((1,6-dimethyl-2-oxo-1,2-dihydropyridin-4-yl)oxy)methyl)-1-(((2-fluoropyridin-3-yl)amino)methyl)-N-(1-phenylcyclopropyl)-2-azabicyclo[2.1.1]hexane-2-carboxamide]	–	H2 (>20% inhibition @ 100 μM)
Cn1ccc(OCC23CN(C(=O)C4(Cc5ccccc5)CC4)C(CNc4cccc5c(N)nccc45)(C2)C3)cc1=O [Example 8, 4-((1-(((1-aminoisoquinolin-5-yl)amino)methyl)-2-(1-benzylcyclopropane-1-carbonyl)-2-azabicyclo[2.1.1]hexan-4-yl)methoxy)-1-methylpyridin-2(1H)-one]	10 to 100	–
Cn1ccc(OCC23CN(C(=O)C(C)(C)Oc4ccccc4)C(CNc4cccc5c(N)nccc45)(C2)C3)cc1=O [Example 4, 4-((1-(((1-aminoisoquinolin-5-yl)amino)methyl)-2-(2-methyl-2-phenoxypropanoyl)-2-azabicyclo[2.1.1]hexan-4-yl)methoxy)-1-methylpyridin-2(1H)-one]	100 to 300	–
Cc1cc(OCC23CN(C(=O)N(C)[C@H]4CCOC4)C(CNc4cccc5c(N)nccc45)(C2)C3)cc(=O)n1C [Example 41, (S)-1-(((1-aminoisoquinolin-5-yl)amino)methyl)-4-(((1,6-dimethyl-2-oxo-1,2-dihydropyridin-4-yl)oxy)methyl)-N-methyl-N-(tetrahydrofuran-3-yl)-2-azabicyclo[2.1.1]hexane-2-carboxamide]	10 to 100	–
C[C@H](c1ccccc1)N(C)C(=O)N1CC2(COc3ccn(C)c(=O)c3)CC1(CNc1cccc3c(N)nccc13)C2 [Example 43, (R)-1-(((1-aminoisoquinolin-5-yl)amino)methyl)-N-methyl-4-(((1-methyl-2-oxo-1,2-dihydropyridin-4-yl)oxy)methyl)-N-(1-phenylethyl)-2-azabicyclo[2.1.1]hexane-2-carboxamide]	1 to 10	–
Cn1ccc(OCC23CN(C(=O)NC4C5CC6CC(C5)CC4C6)C(CNc4cccc5c(N)nccc45)(C2)C3)cc1=O (stereo not shown) [Example 61, N-(adamantan-2-yl)-1-(((1-aminoisoquinolin-5-yl)amino)methyl)-4-(((1-methyl-2-oxo-1,2-dihydropyridin-4-yl)oxy)methyl)-2-azabicyclo[2.1.1]hexane-2-carboxamide]	10 to 100	–
Cc1cc(OCC23CN(C(=O)N(C)C[C@H]4CCOC4)C(CNc4cccc5c(N)nccc45)(C2)C3)cc(=O)n1C [Example 48, (R)-1-(((1-aminoisoquinolin-5-yl)amino)methyl)-4-(((1,6-dimethyl-2-oxo-1,2-dihydropyridin-4-yl)oxy)methyl)-N-methyl-N-((tetrahydrofuran-3-yl)methyl)-2-azabicyclo[2.1.1]hexane-2-carboxamide]	10 to 100	–
Cc1cc(OCC23CN(C(=O)CC45CCC(CC4)CC5)C(CNc4cccc5c(N)nccc45)(C2)C3)cc(=O)n1C [Example 21, 4-((1-(((1-aminoisoquinolin-5-yl)amino)methyl)-2-(2-(bicyclo[2.2.2]octan-1-yl)acetyl)-2-azabicyclo[2.1.1]hexan-4-yl)methoxy)-1,6-dimethylpyridin-2(1H)-one]	10 to 100	–
Cn1ccc(OCC23CN(C(=O)N4CCc5ccccc54)C(CNc4cccc5c(N)nccc45)(C2)C3)cc1=O [Example 34, 4-((1-(((1-aminoisoquinolin-5-yl)amino)methyl)-2-(indoline-1-carbonyl)-2-azabicyclo[2.1.1]hexan-4-yl)methoxy)-1-methylpyridin-2(1H)-one]	10 to 100	–
Cn1ccc(OCC23CN(C(=O)N4Cc5ccccc5C4)C(CNc4cccc5c(N)nccc45)(C2)C3)cc1=O [Example 50, 4-((1-(((1-aminoisoquinolin-5-yl)amino)methyl)-2-(isoindoline-2-carbonyl)-2-azabicyclo[2.1.1]hexan-4-yl)methoxy)-1-methylpyridin-2(1H)-one]	10 to 100	–
Cn1ccc(OCC23CN(C(=O)NC(C)(C)c4ccccc4)C(CNc4cccc5c(N)nccc45)(C2)C3)cc1=O [Example 66, 1-(((1-Aminoisoquinolin-5-yl)amino)methyl)-4-(((1-methyl-2-oxo-1,2-dihydropyridin-4-yl)oxy)methyl)-N-(2-phenylpropan-2-yl)-2-azabicyclo[2.1.1]hexane-2-carboxamide]	1 to 10	–

The remaining lines, values ahead:

IC50 [nM]	Human FXIIa inhibition (compounds that did not achieve 50% inhibition) (class symbols H1/H2 for % inhibition at top concentration)	SMILES
10 to 100	–	Cn1ccc(OCC23CN(C(=O)NC4CC5(CCC5)C4)C(CNc4cccc5c(N)nccc45)(C2)C3)cc1=O [Example 75, 1-(((1-aminoisoquinolin-5-yl)amino)methyl)-4-(((1-methyl-2-oxo-1,2-dihydropyridin-4-yl)oxy)methyl)-N-(spiro[3.3]heptan-2-yl)-2-azabicyclo[2.1.1]hexane-2-carboxamide]
10 to 100	–	Cc1cc(OCC23CN(C(=O)Nc4ccc5c(c4)CCCO5)C(CN(C)c4cccc5c(N)nccc45)(C2)C3)cc(=O)n1C [Example 104, 1-(((1-aminoisoquinolin-5-yl)(methyl)amino)methyl)-N-(chroman-6-yl)-4-(((1,6-dimethyl-2-oxo-1,2-dihydropyridin-4-yl)oxy)methyl)-2-azabicyclo[2.1.1]hexane-2-carboxamide]
10 to 100	–	Cn1ccc(OCC23CN(C(=O)NCCC4CCC4)C(CNc4cccc5c(N)nccc45)(C2)C3)cc1=O [Example 81, 1-(((1-aminoisoquinolin-5-yl)amino)methyl)-N-(2-cyclobutylethyl)-4-(((1-methyl-2-oxo-1,2-dihydropyridin-4-yl)oxy)methyl)-2-azabicyclo[2.1.1]hexane-2-carboxamide]
10 to 100	–	COCCOCCNC(=O)N1CC2(COc3ccn(C)c(=O)c3)CC1(CNc1cccc3c(N)nccc13)C2 [Example 73, 1-(((1-aminoisoquinolin-5-yl)amino)methyl)-N-(2-(2-methoxyethoxy)ethyl)-4-(((1-methyl-2-oxo-1,2-dihydropyridin-4-yl)oxy)methyl)-2-azabicyclo[2.1.1]hexane-2-carboxamide]
10 to 100	–	Cc1cc(OCC23CN(c4ccc(C5CC5)nc4)C(CNc4cccc5c(N)nccc45)(C2)C3)cc(=O)n1C [Example 94, 4-((1-(((1-aminoisoquinolin-5-yl)amino)methyl)-2-(6-cyclopropylpyridin-3-yl)-2-azabicyclo[2.1.1]hexan-4-yl)methoxy)-1,6-dimethylpyridin-2(1H)-one]
10 to 100	–	Cn1ccc(OCC23CN(C(=O)NCC4(C)COC4)C(CNc4cccc5c(N)nccc45)(C2)C3)cc1=O [Example 76, 1-(((1-aminoisoquinolin-5-yl)amino)methyl)-4-(((1-methyl-2-oxo-1,2-dihydropyridin-4-yl)oxy)methyl)-N-((3-methyloxetan-3-yl)methyl)-2-azabicyclo[2.1.1]hexane-2-carboxamide]
1 to 10	–	Cc1cc(OCC23CN(c4nnc(C5CC5)o4)C(CNc4cccc5c(N)nccc45)(C2)C3)cc(=O)n1C [Example 105, 4-((1-(((1-aminoisoquinolin-5-yl)amino)methyl)-2-(5-cyclopropyl-1,3,4-oxadiazol-2-yl)-2-azabicyclo[2.1.1]hexan-4-yl)methoxy)-1,6-dimethylpyridin-2(1H)-one]
10 to 100	–	Cc1cc(OCC23CN(C(=O)N4CC(C5CCOCC5)C4)C(CNc4cccc5c(N)nccc45)(C2)C3)cc(=O)n1C [Example 72, 4-((1-(((1-aminoisoquinolin-5-yl)amino)methyl)-2-(3-(tetrahydro-2H-pyran-4-yl)azetidine-1-carbonyl)-2-azabicyclo[2.1.1]hexan-4-yl)methoxy)-1,6-dimethylpyridin-2(1H)-one]
10 to 100	–	Cc1cc(OCC23CN(C(=O)N4CCC5(CCCC5)C4)C(CNc4cccc5c(N)nccc45)(C2)C3)cc(=O)n1C [Example 85, 4-((1-(((1-aminoisoquinolin-5-yl)amino)methyl)-2-(2-azaspiro[4.4]nonane-2-carbonyl)-2-azabicyclo[2.1.1]hexan-4-yl)methoxy)-1,6-dimethylpyridin-2(1H)-one]
